Like-named read-outs stand apart in the source and are kept apart here.
Biological target: T1, mTOR (Homo sapiens, UniProt P42345)
T1 construct: FLAG; made in house
Test: In Vitro mTOR Kinase Assay (Echo), Test (a)(ii)
Type: biochemical
Outline: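 AlphaScreen read-out: biotinylated substrate phosphorylation was detected with anti-p70 S6K (T389) 1A5 antibody, Protein A acceptor and streptavidin donor beads after overnight dark incubation at room temperature. Enzyme was FLAG-mTOR 1362-2549 from stable HEK293 cells.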

[1] = table of enzyme assay Test (a)(ii), read-out: Test (a)(ii) IC50
[2] = read-out: mTOR Kinase Assay (Echo)

T1 sequence (P42345 1362-2549): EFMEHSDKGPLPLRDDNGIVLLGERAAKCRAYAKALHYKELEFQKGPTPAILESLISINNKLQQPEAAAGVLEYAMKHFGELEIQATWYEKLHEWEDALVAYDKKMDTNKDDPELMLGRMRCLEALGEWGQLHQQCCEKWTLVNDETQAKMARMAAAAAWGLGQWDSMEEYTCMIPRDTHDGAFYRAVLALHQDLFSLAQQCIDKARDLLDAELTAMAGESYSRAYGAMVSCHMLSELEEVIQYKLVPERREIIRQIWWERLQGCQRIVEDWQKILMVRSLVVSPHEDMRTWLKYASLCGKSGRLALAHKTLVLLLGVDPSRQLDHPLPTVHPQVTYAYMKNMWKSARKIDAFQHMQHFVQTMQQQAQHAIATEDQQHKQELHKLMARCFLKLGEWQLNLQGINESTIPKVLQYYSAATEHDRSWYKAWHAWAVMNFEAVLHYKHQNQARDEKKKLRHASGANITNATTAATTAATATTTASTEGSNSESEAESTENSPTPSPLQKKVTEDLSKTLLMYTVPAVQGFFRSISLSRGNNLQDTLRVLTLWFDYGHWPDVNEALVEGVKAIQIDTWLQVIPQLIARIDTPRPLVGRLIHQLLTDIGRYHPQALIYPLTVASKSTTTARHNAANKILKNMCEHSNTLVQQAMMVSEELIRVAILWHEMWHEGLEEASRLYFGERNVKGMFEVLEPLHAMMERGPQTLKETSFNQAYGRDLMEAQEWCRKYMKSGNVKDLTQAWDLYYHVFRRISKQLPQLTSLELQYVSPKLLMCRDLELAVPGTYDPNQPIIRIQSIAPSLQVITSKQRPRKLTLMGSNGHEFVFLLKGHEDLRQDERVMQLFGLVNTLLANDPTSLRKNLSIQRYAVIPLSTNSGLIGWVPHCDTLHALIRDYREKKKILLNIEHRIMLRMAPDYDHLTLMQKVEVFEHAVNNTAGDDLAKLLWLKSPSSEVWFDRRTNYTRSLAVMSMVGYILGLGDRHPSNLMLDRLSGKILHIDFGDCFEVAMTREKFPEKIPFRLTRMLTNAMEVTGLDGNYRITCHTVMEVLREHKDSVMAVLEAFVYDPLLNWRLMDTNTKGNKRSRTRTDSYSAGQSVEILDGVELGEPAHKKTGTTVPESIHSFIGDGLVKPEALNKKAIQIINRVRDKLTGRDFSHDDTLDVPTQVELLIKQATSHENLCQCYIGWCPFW

SMILES	IC50 [1]	IC50 [2]
Cc1csc(S(=O)(=O)C2(c3cc(N4CCOCC4)nc(-c4ccc(NC(=O)Nc5cnn(C)c5)cc4)n3)CC2)n1 [Example 42b, 3-(1-methylpyrazol-4-yl)-1-[4-[4-[1-[(4-methyl-1,3-thiazol-2-yl)sulfonyl]cyclopropyl]-6-morpholin-4-ylpyrimidin-2-yl]phenyl]urea]	5.35 nM	
C[C@H]1COCCN1c1cc(C2(S(=O)(=O)c3nccs3)CC2)nc(-c2ccc(NC(=O)NCc3ncc[nH]3)cc2)n1 [Example 66b, 3-(1H-imidazol-2-ylmethyl)-1-[4-[4-[(3S)-3-methylmorpholin-4-yl]-6-[1-(1,3-thiazol-2-ylsulfonyl)cyclopropyl]pyrimidin-2-yl]phenyl]urea]	24.6 nM	
CNC(=O)Nc1ccc(-c2nc(N3CCOC[C@@H]3C)cc(C3(S(=O)(=O)c4ccc(C(=O)N(C)C)cn4)CC3)n2)cc1 [Example 49, N,N-Dimethyl-6-[1-[2-[4-(methylcarbamoylamino)phenyl]-6-[(3S)-3-methylmorpholin-4-yl]pyrimidin-4-yl]cyclopropyl]sulfonylpyridine-3-carboxamide]	1.87 nM	
C[C@H]1COCCN1c1cc(C2(S(=O)(=O)CCCO)CC2)nc(-c2ccc(NC(=O)NC3(C)CC3)cc2)n1 [Example 36cl, 1-[4-[4-[1-(3-hydroxypropylsulfonyl)cyclopropyl]-6-[(3S)-3-methylmorpholin-4-yl]pyrimidin-2-yl]phenyl]-3-(1-methylcyclopropyl)urea]	68.1 nM	
C[C@H]1COC[C@H](C)N1c1cc(C2(S(=O)(=O)C3CC3)CC2)nc(-c2ccc(NC(=O)NCC(F)F)cc2)n1 [Example 92a, 1-[4-[4-(1-cyclopropylsulfonylcyclopropyl)-6-[(3S,5S)-3,5-dimethylmorpholin-4-yl]pyrimidin-2-yl]phenyl]-3-(2,2-difluoroethyl)urea]	5.51 nM	
C[C@H]1COCCN1c1cc(C2(S(=O)(=O)c3ccccc3)CC2)nc(-c2ccc(NC(=O)Nc3ncco3)cc2)n1 [Example 36dy, 1-[4-[4-[1-(benzenesulfonyl)cyclopropyl]-6-[(3S)-3-methylmorpholin-4-yl]pyrimidin-2-yl]phenyl]-3-(1,3-oxazol-2-yl)urea]	6.36 nM	
CNC(=S)Nc1ccc(-c2nc(N3CCOC[C@@H]3C)cc(C3(S(=O)(=O)CCCO)CC3)n2)cc1 [Example 37g, 1-[4-[4-[1-(3-hydroxypropylsulfonyl)cyclopro-pyl]-6-[(3S)-3-methylmorpholin-4-yl]pyrimidin-2-yl]phenyl]-3-methylthiourea]	17.9 nM	
C[C@H]1COCCN1c1cc(C2(S(=O)(=O)c3ccccc3)CC2)nc(-c2ccc(NC(=O)Nc3cnn(C)c3)cc2)n1 [Example 36br, 1-[4-[4-[1-(benzenesulfonyl)cyclopropyl]-6-[(3S)-3-methylmorpholin-4-yl]pyrimidin-2-yl]phenyl]-3-(1-methylpyrazol-4-yl)urea]	1.88 nM	
C[C@H]1COCCN1c1cc(C2(S(C)(=O)=O)CC2)nc(-c2ccc(NC(=S)NCCN(C)C)cc2)n1 [Example 35c, 3-(2-dimethylaminoethyl)-1-[4-[4-[(3S)-3-methylmorpholin-4-yl]-6-(1-methylsulfonylcyclopropyl)pyrimidin-2-yl]phenyl]thiourea]	108 nM	
C[C@H]1COCCN1c1cc(C2(S(=O)(=O)c3ccc(F)cc3)CC2)nc(-c2ccc(NC(=S)NC3CC3)cc2)n1 [Example 37t, 3-cyclopropyl-1-[4-[4-[1-(4-fluorophenyl)sulfonylcyclopropyl]-6-[(3S)-3-methylmorpholin-4-yl]pyrimidin-2-yl]phenyl]thiourea]	8.89 nM	
Cc1csc(S(=O)(=O)C2(c3cc(N4CCOC[C@@H]4C)nc(-c4ccc(NC(=O)NCCO)cc4)n3)CCC2)n1 [Example 98e, 3-(2-hydroxyethyl)-1-[4-[4-[(3S)-3-methylmorpholin-4-yl]-6-[1-[(4-methyl-1,3-thiazol-2-yl)sulfonyl]cyclobutyl]pyrimidin-2-yl]phenyl]urea]	3.35 nM	
C[C@H]1COCCN1c1cc(C2(S(=O)(=O)c3cc(F)cc(F)c3)CC2)nc(-c2ccc(NC(=O)NCCO)cc2)n1 [Example 19g, 1-[4-[4-[1-(3,5-difluorophenyl)sulfonylcyclopro-pyl]-6-[(3S)-3-methylmorpholin-4-yl]pyrimidin-2-yl]phenyl]-3-(2-hydroxyethyl)urea]	0.274 nM	
C[C@H]1COCCN1c1cc(C2(S(=O)(=O)C3CC3)CC2)nc(-c2ccc(NC(=O)NCCN(C)C)cc2)n1 [Example 3f, 1-[4-[4-(1-cyclopropylsulfonylcyclopropyl)-6-[(3S)-3-methylmorpholin-4-yl]pyrimidin-2-yl]phenyl]-3-(2-dimethylaminoethyl)urea]		21.4 nM
C[C@H]1COCCN1c1cc(C2(S(=O)(=O)c3ccc(F)cc3)CC2)nc(-c2ccc(NC(=O)NC3CC3)nc2)n1 [Example 14i, 3-cyclopropyl-1-[5-[4-[1-(4-fluorophenyl)sulfonylcyclopro-pyl]-6-[(3S)-3-methylmorpholin-4-yl]pyrimidin-2-yl]pyridin-2-yl]urea]	33.9 nM	
CNC(=O)Nc1ccc(-c2nc(N3CCOC[C@@H]3C)cc(C3(S(=O)(=O)CCC(C)(C)O)CC3)n2)cc1 [Example 79a, 1-[4-[4-[1-(3-hydroxy-3-methylbutyl)sulfonylcyclopropyl]-6-[(3S)-3-methylmorpholin-4-yl]pyrimidin-2-yl]phenyl]-3-methylurea]	22.2 nM	
CCCNC(=O)Nc1ccc(-c2nc(N3CCOC[C@@H]3C)cc(C3(S(=O)(=O)CCCO)CC3)n2)cc1 [Example 31k, 3-[4-[4-[1-(3-hydroxypropylsulfonyl)cyclopropyl]-6-[(3S)-3-methylmorpholin-4-yl]pyrimidin-2-yl]phenyl]-1-propylurea]	1.91 nM	
C[C@H]1COCCN1c1cc(C2(S(=O)(=O)CCCO)CC2)nc(-c2ccc(NC(=O)NC3CCS(=O)(=O)C3)cc2)n1 (stereo partly drawn) [Example 36cr, 3-(1,1-dioxothiolan-3-yl)-1-[4-[4-[1-(3-hydroxypropylsulfonyl)cyclopropyl]-6-[(3S)-3-methylmorpholin-4-yl]pyrimidin-2-yl]phenyl]urea]	43.5 nM	
C[C@H]1COCCN1c1cc(C2(S(C)(=O)=O)CC2)nc(-c2ccc(NC(=S)NCCCO)cc2)n1 [Example 37m, 3-(3-hydroxypropyl)-1-[4-[4-[(3S)-3-methylmorpholin-4-yl]-6-(1-methylsulfonylcyclopropyl)pyri-midin-2-yl]phenyl]thiourea]	50.6 nM	
C[C@H]1COCCN1c1cc(C2(S(=O)(=O)CCCO)CCCC2)nc(-c2ccc(NC(=O)NCCCO)cc2)n1 [Example 43i, 3-(3-hydroxypropyl)-1-[4-[4-[1-(3-hydroxypropyl-sulfonyl)cyclopen-tyl]-6-[(3S)-3-methylmorpholin-4-yl]pyrimidin-2-yl]phenyl]urea]	102 nM	
CNC(=O)Nc1ccc(-c2nc(N3CCOC[C@@H]3C)cc(C3(S(=O)(=O)c4ccc(F)cc4)CC3)n2)cc1 [Example 8, 1-[4-[4-[1-(4-Fluorophenyl)sulfonylcyclopropyl]-6-[(3S)-3-methylmorpholin-4-yl]pyrimidin-2-yl]phenyl]-3-methyl-urea]	0.959 nM	0.576 nM
C[C@H]1COCCN1c1cc(C2(S(=O)(=O)C3CC3)CCOCC2)nc(-c2ccc(NC(=O)Nc3cnn(C)c3)cc2)n1 [Example 23i, 1-[4-[4-(4-cyclopropylsulfonyloxan-4-yl)-6-[(3S)-3-methylmorpholin-4-yl]pyrimidin-2-yl]phenyl]-3-(1-methylpyrazol-4-yl)urea]	25.4 nM	
C[C@H]1COCCN1c1cc(C2(S(C)(=O)=O)CCCC2)nc(-c2ccc(NC(=O)NCCN(C)C)nc2)n1 [Example 14p, 3-(2-dimethylaminoethyl)-1-[5-[4-[(3S)-3-methylmorpholin-4-yl]-6-(1-methylsulfonylcyclopentyl)pyri-midin-2-yl]pyridin-2-yl]urea]	537 nM	
Cc1ccc(S(=O)(=O)C2(c3cc(N4CCOC[C@@H]4C)nc(-c4ccc(NC(=O)NCCO)cc4)n3)CC2)cc1 [Example 95n, 3-(2-hydroxyethyl)-1-[4-[4-[(3S)-3-methylmorpholin-4-yl]-6-[1-(4-methylphenyl)sulfonylcyclopropyl]pyrimidin-2-yl]phenyl]urea]	0.668 nM	
CNC(=S)Nc1ccc(-c2nc(N3CCOC[C@@H]3C)cc(C3(S(=O)(=O)CCCO)CCC3)n2)cc1 [Example 99a, 1-[4-[4-[1-(3-hydroxypropylsulfonyl)cyclobutyl]-6-[(3S)-3-methylmorpholin-4-yl]pyrimidin-2-yl]phenyl]-3-methylthiourea]	43.8 nM	
CCNC(=O)Nc1ccc(-c2nc(N3CCOC[C@@H]3C)cc(C3(S(=O)(=O)c4ccc(F)cc4F)CC3)n2)cc1 [Example 57e, 3-[4-[4-[1-(2,4-difluorophenyl)sulfonylcyclopro-pyl]-6-[(3S)-3-methylmorpholin-4-yl]pyrimidin-2-yl]phenyl]-1-ethylurea]	7.28 nM	
CC(C)NC(=O)Nc1ccc(-c2nc(N3CCOC[C@@H]3C)cc(C3(S(=O)(=O)c4ccccc4)CC3)n2)cc1 [Example 36bf, 1-[4-[4-[1-(benzenesulfonyl)cyclopropyl]-6-[(3S)-3-methylmorpholin-4-yl]pyrimidin-2-yl]phenyl]-3-propan-2-ylurea]	4.57 nM	
C[C@H]1COCCN1c1cc(C2(S(=O)(=O)C3CCOCC3)CC2)nc(-c2ccc(NC(=O)NC3CC3)cc2)n1 [Example 94c, 3-cyclopropyl-1-[4-[4-[(3S)-3-methylmorpholin-4-yl]-6-[1-(oxan-4-ylsulfonyl)cyclopropyl]pyrimidin-2-yl]phenyl]urea]	11.8 nM	
C[C@H]1COCCN1c1cc(C2(S(=O)(=O)CCCO)CCC2)nc(-c2ccc(NC(=O)NC3CC3)cc2)n1 [Example 43, 3-Cyclopropyl-1-[4-[4-[1-(3-hydroxypropylsulfonyl)cyclobutyl]-6-[(3S)-3-methylmorpholin-4-yl]pyrimidin-2-yl]phenyl]urea]	5.39 nM	
